Measurements: PubChem BioAssay AID1963439 (Molecular Pharmacology Branch, DTP, NCI, 2024)
Where “and” joins values, the source holds several entries; their conditions need not be identical. Equal entries are not always repeated.

System: NCI-H196 complex spheroids with HUVEC/MSC, growth % T/C
Assay: Anticancer human tumor NCI-H196 cell line growth inhibition [Asc];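 also: spheroids exposed to compound for 7 days before measurement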;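 as to viability, T/C: 100% = DMSO vehicle control wells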
Details: for viability, T/C: stronger effect = lower value
In short: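 Spheroid model: tumor line + HUVEC + hMSC. Single agents and combinations; top conc. at/near clinical Cmax (10 microM if undetermined), half-log dilutions. DMSO stocks at 800-fold test concentration.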

[1] = curve of first compound, second compound 0.01 µM
[2] = curve of first compound, second compound 0.0316 µM
[3] = curve of first compound, second compound 0.1 µM
[4] = curve of first compound, second compound 0.316 µM
[5] = curve of first compound, second compound 1 µM
[6] = second compound 0.01 µM, first compound 0.00316 µM
[7] = second compound 0.01 µM, first compound 0.01 µM
[8] = second compound 0.01 µM, first compound 0.0316 µM
[9] = second compound 0.01 µM, first compound 0.1 µM
[10] = second compound 0.01 µM, first compound 0.316 µM
[11] = second compound 0.01 µM, first compound 1 µM
[12] = second compound 0.0316 µM, first compound 0.00316 µM
[13] = second compound 0.0316 µM, first compound 0.01 µM
[14] = second compound 0.0316 µM, first compound 0.0316 µM
[15] = second compound 0.0316 µM, first compound 0.1 µM
[16] = second compound 0.0316 µM, first compound 0.316 µM
[17] = second compound 0.0316 µM, first compound 1 µM
[18] = second compound 0.1 µM, first compound 0.00316 µM
[19] = second compound 0.1 µM, first compound 0.01 µM
[20] = second compound 0.1 µM, first compound 0.0316 µM
[21] = second compound 0.1 µM, first compound 0.1 µM
[22] = second compound 0.1 µM, first compound 0.316 µM
[23] = second compound 0.1 µM, first compound 1 µM
[24] = second compound 0.316 µM, first compound 0.00316 µM
[25] = second compound 0.316 µM, first compound 0.01 µM
[26] = second compound 0.316 µM, first compound 0.0316 µM
[27] = second compound 0.316 µM, first compound 0.1 µM
[28] = second compound 0.316 µM, first compound 0.316 µM
[29] = second compound 0.316 µM, first compound 1 µM
[30] = second compound 1 µM, first compound 0.00316 µM
[31] = second compound 1 µM, first compound 0.01 µM
[32] = second compound 1 µM, first compound 0.0316 µM
[33] = second compound 1 µM, first compound 0.1 µM
[34] = second compound 1 µM, first compound 0.316 µM
[35] = second compound 1 µM, first compound 1 µM
[36] = curve of first compound, second compound 3.16 µM
[37] = curve of first compound, second compound 10 µM
[38] = second compound 3.16 µM, first compound 0.0316 µM
[39] = second compound 3.16 µM, first compound 0.1 µM
[40] = second compound 3.16 µM, first compound 0.316 µM
[41] = second compound 3.16 µM, first compound 1 µM
[42] = second compound 10 µM, first compound 0.0316 µM
[43] = second compound 10 µM, first compound 0.1 µM
[44] = second compound 10 µM, first compound 0.316 µM
[45] = second compound 10 µM, first compound 1 µM

`COc1c(OCCCN2CCOCC2)ccc2c3n(c(=NC(=O)c4cnc(N)nc4)nc12)CCN3` + CNC(C)C(=O)NC1CN(S(=O)(=O)c2cccc(S(=O)(=O)N3CCC4CCC(C(=O)NC(c5ccccc5)c5ccccc5)N4C(=O)C(NC(=O)C(C)NC)C3)c2)CCC2CCC(C(=O)NC(c3ccccc3)c3ccccc3)N2C1=O showed an IC50 [1] of less than 3.16 nM, an IC50 [2] of less than 3.16 nM and an IC50 [3] of less than 3.16 nM. For the same molecule, the IC50 [4] was less than 3.16 nM, the IC50 [5] was less than 3.16 nM and the viability, T/C [6] was 5.54%. It also gave a viability, T/C [7] of 4.98%, a viability, T/C [8] of 5.78% and a viability, T/C [9] of 6.94%. The viability, T/C [10] was 10.4%, the viability, T/C [11] was 12.5% and the viability, T/C [12] was 4.98%. It also gave a viability, T/C [13] of 5.47%, a viability, T/C [14] of 4.38% and a viability, T/C [15] of 4.6%. For the same molecule, the viability, T/C [16] was 5.64%, the viability, T/C [17] was 9.69% and the viability, T/C [18] was 2.54%. The viability, T/C [19] was 3.24%, the viability, T/C [20] was 3.31% and the viability, T/C [21] was 2.53%. The viability, T/C [22] was 5.11%, the viability, T/C [23] was 4.24% and the viability, T/C [24] was 3.55%. For the same molecule, the viability, T/C [25] was 2.22%, the viability, T/C [26] was 1.86% and the viability, T/C [27] was 3.02%. The viability, T/C [28] was 3.25%, the viability, T/C [29] was 3.07% and the viability, T/C [30] was 2.39%. The viability, T/C [31] was 2.16%, the viability, T/C [32] was 2.41% and the viability, T/C [33] was 2.12%. It also gave a viability, T/C [34] of 1.61% and a viability, T/C [35] of 2.15%.
With `O=C(c1ccc(F)c(F)c1Nc1ccc(I)cc1F)N1CC(O)([C@@H]2CCCCN2)C1` + CNC(C)C(=O)NC1CN(S(=O)(=O)c2cccc(S(=O)(=O)N3CCC4CCC(C(=O)NC(c5ccccc5)c5ccccc5)N4C(=O)C(NC(=O)C(C)NC)C3)c2)CCC2CCC(C(=O)NC(c3ccccc3)c3ccccc3)N2C1=O the IC50 [1] was less than 3.16 nM, the IC50 [2] was less than 3.16 nM and the IC50 [3] was less than 3.16 nM. For the same molecule, the IC50 [4] was less than 3.16 nM, the IC50 [5] was less than 3.16 nM and the viability, T/C [6] was 8.04%. It also gave a viability, T/C [7] of 5.36%, a viability, T/C [8] of 5.61% and a viability, T/C [9] of 8.2%. For the same molecule, the viability, T/C [10] was 12.4%, the viability, T/C [11] was 17.3% and the viability, T/C [12] was 3.55%. For the same molecule, the viability, T/C [13] was 6.82%, the viability, T/C [14] was 5.25% and the viability, T/C [15] was 3.88%. It also gave a viability, T/C [16] of 6.05%, a viability, T/C [17] of 7.48% and a viability, T/C [18] of 4.86%. It also gave a viability, T/C [19] of 5.49%, a viability, T/C [20] of 4.59% and a viability, T/C [21] of 2.13%. The viability, T/C [22] was 3.06%, the viability, T/C [23] was 4.14% and the viability, T/C [24] was 7.23%. For the same molecule, the viability, T/C [25] was 3.09%, the viability, T/C [26] was 3.2% and the viability, T/C [27] was 2.51%. It also gave a viability, T/C [28] of 3.39%, a viability, T/C [29] of 3.61% and a viability, T/C [30] of 3.63%. For the same molecule, the viability, T/C [31] was 3.54%, the viability, T/C [32] was 4.37% and the viability, T/C [33] was 2.53%. The viability, T/C [34] was 2.07% and the viability, T/C [35] was 3.08%.
For `O=C(c1ccc(F)c(F)c1Nc1ccc(I)cc1F)N1CC(O)([C@@H]2CCCCN2)C1` + Cc1c(S(C)(=O)=O)c(-c2cc(F)cc(N3CCN(c4ccc(NS(=O)(=O)c5ccc(NC(CCN6CCC(C(=O)OCCCP(=O)(O)O)CC6)CSc6ccccc6)c(S(=O)(=O)C(F)(F)F)c5)cc4)CC3)c2)c(-c2ccc(Cl)cc2)n1C(C)C, the IC50 [3] was greater than 1000 nM, the IC50 [4] was greater than 1000 nM and the IC50 [5] was greater than 1000 nM. It also gave an IC50 [36] greater than 1000 nM, an IC50 [37] greater than 1000 nM and a viability, T/C [18] of 103%. The viability, T/C [19] was 104%, the viability, T/C [20] was 108% and the viability, T/C [21] was 102%. The viability, T/C [22] was 117%, the viability, T/C [23] was 125% and the viability, T/C [24] was 99%. The viability, T/C [25] was 96.1%, the viability, T/C [26] was 88.6% and the viability, T/C [27] was 97.4%. For the same molecule, the viability, T/C [28] was 105%, the viability, T/C [29] was 117% and the viability, T/C [30] was 84.9%. It also gave a viability, T/C [31] of 89.1%, a viability, T/C [32] of 93.9% and a viability, T/C [33] of 106%. For the same molecule, the viability, T/C [34] was 108%, the viability, T/C [35] was 117% and the viability, T/C (second compound 3.16 µM, first compound 0.00316 µM) was 79.8%. It also gave a viability, T/C (second compound 3.16 µM, first compound 0.01 µM) of 87.3%, a viability, T/C [38] of 87.8% and a viability, T/C [39] of 85.4%. It also gave a viability, T/C [40] of 102%, a viability, T/C [41] of 106% and a viability, T/C (second compound 10 µM, first compound 0.00316 µM) of 74.5%. The viability, T/C (second compound 10 µM, first compound 0.01 µM) was 85.8%, the viability, T/C [42] was 81.2% and the viability, T/C [43] was 83%. For the same molecule, the viability, T/C [44] was 90.6% and the viability, T/C [45] was 97%.
With `NC(=O)C(=Cn1cnc(-c2cc(C(F)(F)F)cc(C(F)(F)F)c2)n1)c1cncnc1` the viability, T/C (compound 0.000949 µM) was 112% and 103% and 99.9%, the viability, T/C (compound 0.003 µM) was 101% and 99.4% and 88.3% and the viability, T/C (compound 0.00949 µM) was 79% and 71.1% and 58.7%. The viability, T/C (compound 0.03 µM) was 48.9% and 49.5% and 27.4%, the viability, T/C (compound 0.0949 µM) was 9.22% and 11.1% and 7.62% and the viability, T/C (compound 0.3 µM) was 6.01% and 7.26% and 5.35%. The IC50 (curve of compound) was 25.1 nM and 23.9 nM and 13.1 nM.
Work on `O=C(c1cc(Cc2n[nH]c(=O)c3ccccc23)ccc1F)N1CCN(C(=O)C2CC2)CC1` + Cc1c(S(C)(=O)=O)c(-c2cc(F)cc(N3CCN(c4ccc(NS(=O)(=O)c5ccc(NC(CCN6CCC(C(=O)OCCCP(=O)(O)O)CC6)CSc6ccccc6)c(S(=O)(=O)C(F)(F)F)c5)cc4)CC3)c2)c(-c2ccc(Cl)cc2)n1C(C)C yielded an IC50 [3] greater than 10000 nM, an IC50 [4] greater than 10000 nM and an IC50 [5] greater than 10000 nM. For the same molecule, the IC50 [36] was greater than 10000 nM, the IC50 [37] was greater than 10000 nM and the viability, T/C [20] was 98%. The viability, T/C [21] was 93.4%, the viability, T/C [22] was 85.8% and the viability, T/C [23] was 95.6%. It also gave a viability, T/C (second compound 0.1 µM, first compound 3.16 µM) of 99.8%, a viability, T/C (second compound 0.1 µM, first compound 10 µM) of 89.5% and a viability, T/C [26] of 88.8%. For the same molecule, the viability, T/C [27] was 102%, the viability, T/C [28] was 103% and the viability, T/C [29] was 88.3%. For the same molecule, the viability, T/C (second compound 0.316 µM, first compound 3.16 µM) was 94.3%, the viability, T/C (second compound 0.316 µM, first compound 10 µM) was 87.1% and the viability, T/C [32] was 91.4%. The viability, T/C [33] was 96.9%, the viability, T/C [34] was 88.2% and the viability, T/C [35] was 89%. It also gave a viability, T/C (second compound 1 µM, first compound 3.16 µM) of 83.5%, a viability, T/C (second compound 1 µM, first compound 10 µM) of 81.2% and a viability, T/C [38] of 89.9%. It also gave a viability, T/C [39] of 83.6%, a viability, T/C [40] of 84.5% and a viability, T/C [41] of 86%. It also gave a viability, T/C (second compound 3.16 µM, first compound 3.16 µM) of 78.3%, a viability, T/C (second compound 3.16 µM, first compound 10 µM) of 66.3% and a viability, T/C [42] of 73.2%. For the same molecule, the viability, T/C [43] was 74.9%, the viability, T/C [44] was 71.6% and the viability, T/C [45] was 71.8%. It also gave a viability, T/C (second compound 10 µM, first compound 3.16 µM) of 74% and a viability, T/C (second compound 10 µM, first compound 10 µM) of 57.9%.
`CCN1C(C(=O)NC23CCC(C(=O)O)(CC2)CC3)C(c2cccc(Cl)c2F)C2(C(=O)Nc3cc(Cl)ccc32)C12CCCCC2` (centres undefined) was tested, and the viability, T/C (compound 0.00949 µM) was 102% and 98.3%, the viability, T/C (compound 0.03 µM) was 102% [middle of 15 runs] and the viability, T/C (compound 0.0949 µM) was 106% [middle of 15 runs]. The viability, T/C (compound 0.3 µM) was 106% [middle of 15 runs], the viability, T/C (compound 0.949 µM) was 113% [middle of 15 runs] and the IC50 (compound alone, run of 09/27/2022) was greater than 3000 nM. The IC50 (curve of compound) was greater than 3000 nM.
